Assay results as given in article PMC11990524, “Design and Synthesis of Novel 6-(Substituted phenyl)-[1,3]dioxolo[4′,5′:4,5]benzo[1,2-d]thiazole Compounds as Tyrosinase Inhibitors: In Vitro and In Vivo Insights” (Molecules, 2025).
Where two headings read alike, the source gives them in different places.

Columns and labels:
[1] = biological target: T1, mushroom tyrosinase (Agaricus bisporus, UniProt C7FF04); assay: Mushroom tyrosinase inhibitory activity assay (L-dopa or L-tyrosine as substrate); assay type: biochemical; conditions: 50 μM, read-out: Inhibition (%, Mean ± SEM) at 50 μM (converted)
Procedure: In the inhibition experiments, L-dopa and L-tyrosine were used as enzyme substrates.
The plate was incubated at 37 °C for 30 min, and absorbance of dopachrome formation was recorded spectrophotometrically at 475 nm using a VersaMax® Elisa (VE) microplate reader (Molecular Devices, San Jose, CA, USA) to determine tyrosinase inhibition activity. A VE microplate reader was used in all subsequent experiments to measure optical density. All experiments were carried out independently three times.
Target sequence in this assay (C7FF04 2-392): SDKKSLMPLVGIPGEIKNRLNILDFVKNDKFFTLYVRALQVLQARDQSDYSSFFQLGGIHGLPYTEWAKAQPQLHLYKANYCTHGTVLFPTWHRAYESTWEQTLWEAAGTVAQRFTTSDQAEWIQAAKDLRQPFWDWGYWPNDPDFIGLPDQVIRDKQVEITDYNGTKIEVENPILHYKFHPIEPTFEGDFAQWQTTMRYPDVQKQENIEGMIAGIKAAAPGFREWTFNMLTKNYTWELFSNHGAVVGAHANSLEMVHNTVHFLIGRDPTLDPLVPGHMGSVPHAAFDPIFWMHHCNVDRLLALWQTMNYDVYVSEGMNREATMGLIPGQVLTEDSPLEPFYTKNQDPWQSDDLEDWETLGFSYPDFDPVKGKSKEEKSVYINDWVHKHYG

[2] = biological target: T2, B16F10 cell tyrosinase (Mus musculus, UniProt P11344); assay: In situ cellular tyrosinase activity assay using B16F10 cells; assay type: cell-based, murine; conditions: 1, 2, and 5 μM, IBMX plus α-MSH, 72 h, L-dopa 2 h
T2 construct: endogenous in cells; host or cells: B16F10 murine cells, stimulated with α-MSH and IBMX
T2 sequence (P11344 19-533): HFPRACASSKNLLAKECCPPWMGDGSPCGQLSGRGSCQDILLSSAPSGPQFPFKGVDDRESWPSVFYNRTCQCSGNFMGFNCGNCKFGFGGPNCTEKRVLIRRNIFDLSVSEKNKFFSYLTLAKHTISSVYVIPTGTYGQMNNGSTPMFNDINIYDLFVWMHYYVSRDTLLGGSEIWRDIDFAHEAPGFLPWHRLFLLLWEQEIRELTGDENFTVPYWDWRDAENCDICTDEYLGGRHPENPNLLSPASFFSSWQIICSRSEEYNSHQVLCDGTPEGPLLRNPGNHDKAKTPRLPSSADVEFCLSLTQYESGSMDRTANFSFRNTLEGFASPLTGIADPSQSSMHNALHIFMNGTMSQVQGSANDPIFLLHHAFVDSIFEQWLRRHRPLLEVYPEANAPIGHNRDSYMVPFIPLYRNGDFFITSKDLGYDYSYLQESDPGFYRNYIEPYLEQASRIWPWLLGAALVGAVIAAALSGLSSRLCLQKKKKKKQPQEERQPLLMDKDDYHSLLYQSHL
Procedure: After 72 h of incubation, the cells were treated with an excessive amount of L-dopa for 2 h, and then the melanin-stained cells were photographed, and the pigmented areas of the cells were determined using an ATTO CS Analyzer (ATTO, Tokyo, Japan).
B16F10 (3 × 10^3 cells/well) cells in a 24-well plate were incubated for 24 h in a 5% CO2 incubator maintained at 37 °C. […] Stimulators (α-MSH and IBMX; 1 μM and 200 μM, respectively) were exposed to cells 1 h after treatment with the test sample, and the cells were incubated for 72 h in a 5% CO2 incubator. The cells were fixed for 40 min using paraformaldehyde solution (4%) (Sigma-Aldrich, St. Louis, MO, USA), washed with PBS (pH 7.4), and permeabilized for 2 min using Triton X-100 (0.1%). After washing twice with PBS, each well was exposed to L-dopa solution (500 μL; 2 mM). After incubation for 2 h, images of the cells stained with excess melanin were obtained using a camera connected to a microscope (Motic, Hong Kong).

[3] = system: HaCaT cells; assay: Cytotoxicity assay on HaCaT cells (EZ-Cytox); assay type: cell-based, human; conditions: 1, 2, 5, 10, and 20 μM, 24 h
Procedure: In addition to melanocytes, keratinocytes are the primary cells present in the epidermis. […] Each compound was treated at concentrations of 0, 1, 2, 5, 10, and 20 μM for 24 h, and cell viability was measured using the EZ-Cytox solution.
The effect of compounds 5 and 9 on cell viability of HaCaT and B16F10 cells was assessed using an EZ-Cytox solution (EZ-1000®, DoGenBio, Seoul, Republic of Korea). HaCaT (5 × 10^3 cells/well) and B16F10 (1 × 10^3 cells/well) cells were seeded in a 96-well plate, respectively, and cultured for 24 h under the same conditions as the cell culture. Each well was treated with 5 and 9 at 0, 1, 2, and 5 μM for B16F10 cells and 0, 1, 2, 5, 10, and 20 μM for HaCaT cells. The plates were incubated for 72 h for B16F10 cells and 24 h for HaCaT cells under a CO2 incubator. Each well was treated with the EZ-Cytox solution (10 μL), and the plate was left for 2 h under a CO2 incubator. Well optical density was measured at 450 nm to determine cytotoxicity.

[4] = biological target: T1, mushroom tyrosinase; assay: Kinetic analysis of mushroom tyrosinase (Lineweaver–Burk and Dixon plots); assay type: biochemical; parameters: purchased Sigma-Aldrich; conditions: substrate L-dopa
Procedure: Therefore, the mechanism of inhibition was investigated using mushroom tyrosinase. At various concentrations of L-dopa, the initial dopachrome production rate was investigated at four different concentrations of 5 (0, 20, 40, and 80 μM) and 9 (0, 0.5, 1.0, and 2.0 μM).
The Lineweaver–Burk plot for each compound was re-plotted by plotting the reciprocal of the initial dopachrome production rate vs. the […] to create a Dixon plot for each compound (Figure 3C,D for compounds 5 and 9, respectively). […] The absolute value of the x-coordinate of the merged point represents the inhibition constant (Ki), which indicates the potency of the inhibitor.
Kinetic analysis of mushroom tyrosinase was performed by recording the initial dopachrome formation rate in the presence of compounds 5 and 9. […] The optical density of dopachrome production in each well was recorded at 475 nm at 5 min intervals for 30 min. Compounds were tested at 80, 40, 20, and 0 μM for 5 and at 2, 1.0, 0.5, and 0 μM for 9, respectively. Potting the inverse of the substrate concentration vs. the reciprocal of the initial dopachrome production rate generated Lineweaver–Burk plots.
Target sequence in this assay (C7FF04 1-392): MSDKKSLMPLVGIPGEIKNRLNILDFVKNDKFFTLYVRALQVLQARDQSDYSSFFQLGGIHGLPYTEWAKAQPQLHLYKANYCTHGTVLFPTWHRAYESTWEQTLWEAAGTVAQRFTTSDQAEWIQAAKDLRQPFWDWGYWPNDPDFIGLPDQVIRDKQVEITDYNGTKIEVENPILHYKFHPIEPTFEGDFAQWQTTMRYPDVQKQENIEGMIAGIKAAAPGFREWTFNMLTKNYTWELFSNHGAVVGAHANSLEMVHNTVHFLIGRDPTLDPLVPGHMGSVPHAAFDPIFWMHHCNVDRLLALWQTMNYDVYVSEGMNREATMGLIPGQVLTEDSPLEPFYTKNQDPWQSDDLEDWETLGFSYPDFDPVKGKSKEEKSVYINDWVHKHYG

[5] = biological target: T3, B16F10 cellular tyrosinase (Mus musculus, UniProt P11344); assay: Cellular tyrosinase activity assay using B16F10 cells; assay type: cell-based, murine; conditions: 1, 2, and 5 μM, IBMX 200 μM plus α-MSH 1 μM, 72 h
T3 construct: endogenous in cells; host or cells: B16F10 murine cells, stimulated with α-MSH and IBMX
T3 sequence (P11344 19-533): T2 sequence (P11344 19-533)
Procedure: After 72 h of incubation, the B16F10 cellular tyrosinase inhibitory activity was evaluated by measuring the optical density at 475 nm.
To evaluate the effect of compounds 5 and 9 on cellular tyrosinase activity, B16F10 cells (5000 cells/well) were inoculated in a 6-well plate and cultured for 24 h under the same conditions as the cell culture. […] The plate was incubated in a 5% CO2 incubator maintained at 37 °C for 1 h. Each well was treated with stimulators (1 μM α-MSH [Alomone Labs^TM, Jerusalem, Israel] and 200 μM IBMX [Thermo Fisher, Rockford, IL, USA]) and incubated in a CO2 incubator for 72 h. The cells were rinsed twice with PBS (pH 7.4) and treated with 100 μL lysis buffer solution consisting of Triton X-100 (1%; 5 μL), phosphate buffer (50 mM; pH 6.5; 90 μL), and phenylmethanesulfonyl fluoride (2 mM; 5 μL). The lysates were placed for 30 min at −80 °C. After centrifuging at 10,000 g and 4 °C for 10 min, an aliquot (80 μL) of the supernatants was transferred to each well of a 96-well plate, and 20 μL of L-dopa solution (10 mM) was added to each well. The optical density at 475 nm was recorded every min for 10 min to determine cellular tyrosinase activity.

[6] = system: B16F10 cells; assay: Cellular melanin content assay using B16F10 cells; assay type: cell-based, murine
Procedure: After 72 h of incubation, the melanin content was evaluated by measuring the optical density at 405 nm.
The plate was incubated in a CO2 incubator for 1 h. Each well was treated with stimulators (α-MSH and IBMX; 1 μM and 200 μM, respectively) and incubated in a CO2 incubator for 72 h. The incubated cells were rinsed twice with PBS (pH 7.4). 1N–NaOH solution (100 μL) was added to each well and warmed at 60 °C for 1 h. The lysates were transferred to each well of a 96-well plate. The optical density was measured at 405 nm.

[7] = system: zebrafish embryos; assay: In vivo pigmentation assay using zebrafish embryos; parameters: species or system Danio rerio; conditions: kojic acid 20 mM; treated at 24 hpf, measured at 72 hpf
Procedure: To identify whether the synthesized compounds could exert anti-melanogenic effects in vivo, in vivo experiments were performed using zebrafish embryos. Freely obtained zebrafish embryos were transferred to a culture dish containing an E3-MB solution and incubated at 28 °C until use. For a preliminary experiment, zebrafish embryos were dechorionated using Pronase® (Sigma-Aldrich) at 20 h post fertilization (hpf), and each compound at 0.1 mM was exposed to five zebrafish embryos in E3 solution at 24 hpf. The depigmentation abilities were compared at 72 hpf to select the compounds used in the main experiments. From the preliminary experiments (n = 1), five compounds (2, 5, and 11–13) were selected for the main depigmentation experiments (n = 3). As in the preliminary experiment, the obtained zebrafish embryos were dechorionated at 20 hpf, and each selected compound (0.1 mM) was administered to six zebrafish embryos in the E3 solution at 24 hpf. The pigmentation of zebrafish larvae was photographed and measured in dorsal and lateral views at 72 hpf using an ATTO CS analyzer (ATTO, Tokyo, Japan). […] Pigmentation of zebrafish larvae was imaged using the SMZ745T microscope (Nikon, Tokyo, Japan), and the pigmented areas were measured in dorsal and lateral views at 72 hpf using an ATTO CS analyzer (ATTO, Tokyo, Japan).

Row | SMILES | inhibition at 50 µM ([1]; substrate L-dopa) [%] | inhibition at 50 µM ([1]; substrate L-tyrosine) [%] | number of cells strongly stained with melanin (in situ tyrosinase) [2] | cytotoxicity (cell viability) [3] | Ki ([4]; Dixon plot, read-out: inhibition constant (Ki)) [µM] | mechanism of inhibition ([4]; Lineweaver–Burk plot) | cellular tyrosinase activity [5] | melanin content ([6]; 1, 2, and 5 μM, IBMX 200 μM plus α-MSH 1 μM, 72 h) | melanin production inhibition compared with kojic acid ([6]; same concentration (5 μM)) | depigmentation effect on zebrafish larvae [7]
1 | Oc1ccc(-c2nc3cc4c(cc3s2)OCO4)cc1 [Compound 5, 4-([1,3]Dioxolo[4′,5′:4,5]benzo[1,2-d]thiazol-6-yl)phenol] | 63.3 | 61.4 | evidently reduced the number of cells strongly stained with melanin | None of the compounds revealed significant cytotoxicity up to 20 μM | 46 | competitive inhibitors | significantly decreased the cellular tyrosinase activity | significantly reduced the stimulator-induced melanin contents | inhibited melanin production more potently than kojic acid | –
2 | O=c1cc(CO)occ1O [kojic acid] | – | – | – | – | – | – | – | – | – | significant depigmentation effect
